From patent publication US10125167B2, “Compositions and methods for treating MRSA infections and for sensitizing MRSA to beta-lactam antibiotics” (Arizona Board of Regents on behalf of Arizona State …, priority 2015, dated 2018)
In brackets after ≈: the same amount, converted by molar mass. Read-outs that look alike come from different tables or passages of the source.

What was measured:
USA100 = experiment: Synergy of ASU014 with antibiotics (MIC/FIC); format: cell-based, S. aureus; conditions: for Antibiotic MIC, Antibiotic Only: USA100; for Antibiotic MIC +¼ MIC (ASU014) / FIC +¼ MIC (ASU014): USA100, with ¼ MIC ASU014; for Antibiotic MIC +½ MIC (ASU014) / FIC +½ MIC (ASU014): USA100, with ½ MIC ASU014; for Antibiotic MIC +⅛ MIC (ASU014) / FIC +⅛ MIC (ASU014): USA100, with ⅛ MIC ASU014
USA300-HI168 = experiment: Synergy of ASU014 with antibiotics (MIC/FIC); format: cell-based, S. aureus; conditions: for Antibiotic MIC, Antibiotic Only: USA300-HI168; for Antibiotic MIC +¼ MIC (ASU014) / FIC +¼ MIC (ASU014): USA300-HI168, with ¼ MIC ASU014; for Antibiotic MIC +½ MIC (ASU014) / FIC +½ MIC (ASU014): USA300-HI168, with ½ MIC ASU014
MRSA (USA300-LAC) = experiment: MIC against a panel of Gram-positive and Gram-negative bacteria; format: cell-based, Staphylococcus aureus
[1] = test system: MRSA (USA500) BEI: HFH-30522; experiment: as above; format: cell-based, Staphylococcus aureus
[2] = test system: MRSA (USA400) BEI: HFH-30364; experiment: as above; format: cell-based, Staphylococcus aureus
MSSA = experiment: as above; format: cell-based, S. aureus
[3] = test system: MRSA (USA300) BEI: FOO3/HI168; experiment: as above; format: cell-based, Staphylococcus aureus
USA300-LAC = experiment: Synergy of ASU014 with antibiotics (MIC/FIC); format: cell-based, S. aureus
MSSA UAB637 = experiment: Synergy of ASU014 with antibiotics (MIC/FIC); format: cell-based, S. aureus
P. aeruginosa PAO1 = experiment: MIC against a panel of Gram-positive and Gram-negative bacteria; format: cell-based; conditions: Pseudomonas aeruginosa
[4] = test system: MRSA (USA100) BEI: HFH-30123; experiment: as above; format: cell-based; conditions: Staphylococcus aureus
[5] = USA300-HI168, with ⅛ MIC ASU014
[6] = Staphylococcus aureus, read-out: MIC

| Structure (SMILES) | Antibiotic MIC, Antibiotic Only (USA100) [µg/mL] | Antibiotic MIC +¼ MIC (ASU014) (USA100) [µg/mL] | FIC +¼ MIC (ASU014) (USA100) | Antibiotic MIC +½ MIC (ASU014) (USA100) [µg/mL] | FIC +½ MIC (ASU014) (USA100) | Antibiotic MIC +⅛ MIC (ASU014) (USA100) [µg/mL] | FIC +⅛ MIC (ASU014) (USA100) | Antibiotic MIC, Antibiotic Only (USA300-HI168) [µg/mL] | Antibiotic MIC +¼ MIC (ASU014) (USA300-HI168) [µg/mL] | FIC +¼ MIC (ASU014) (USA300-HI168) | Antibiotic MIC +½ MIC (ASU014) (USA300-HI168) [µg/mL] | FIC +½ MIC (ASU014) (USA300-HI168) | Antibiotic MIC +⅛ MIC (ASU014) (USA300-HI168; [5]) [µg/mL] | further results |
| --- | --- | --- | --- | --- | --- | --- | --- | --- | --- | --- | --- | --- | --- | --- |
| CC1(C)S[C@@H]2[C@H](NC(=O)[C@H](N)c3ccc(O)cc3)C(=O)N2[C@H]1C(=O)O [Amoxicillin, amoxicillin] | >256 | 32 | 0.38 | 4 | 0.52 | >256 |  |  |  |  |  |  |  | MIC (USA100; Staphylococcus aureus, MRSA / USA100, this MRSA strain, antibiotic alone): > 256 µg/mL |
| [H]/N=C(/N)N[C@H]1[C@H](O)[C@@H](O)[C@H](O[C@@H]2O[C@@H](C)[C@](O)(C=O)[C@H]2O[C@@H]2O[C@@H](CO)[C@H](O)[C@@H](O)[C@@H]2NC)[C@@H](N/C(N)=N\[H])[C@@H]1O [Streptomycin] |  |  |  |  |  |  |  | 4 | 2 | 0.75 | 0.5 | 0.63 | 4 |  |
| O=C(O)c1cn(C2CC2)c2cc(N3CCNCC3)c(F)cc2c1=O [Cipro, Ciprofloxacin] | >32 | >32 |  | >32 |  | >32 |  |  |  |  |  |  |  | MIC [1, 6]: > 4 µg/mL; MIC [2, 6]: 0.5 µg/mL (≈ 1.51 µM); MIC (P. aeruginosa PAO1): 0.5 µg/mL (≈ 1.51 µM); MIC (MSSA; [6]): 0.25 µg/mL (≈ 0.754 µM); MIC [3, 6]: 0.5 µg/mL (≈ 1.51 µM); MIC [4]: > 4 µg/mL |

The next lines start with results.

| Antibiotic MIC, Antibiotic Only (USA100) [µg/mL] | Antibiotic MIC +¼ MIC (ASU014) (USA100) [µg/mL] | FIC +¼ MIC (ASU014) (USA100) | Antibiotic MIC +½ MIC (ASU014) (USA100) [µg/mL] | FIC +½ MIC (ASU014) (USA100) | Antibiotic MIC +⅛ MIC (ASU014) (USA100) [µg/mL] | FIC +⅛ MIC (ASU014) (USA100) | Antibiotic MIC, Antibiotic Only (USA300-HI168) [µg/mL] | Antibiotic MIC +¼ MIC (ASU014) (USA300-HI168) [µg/mL] | FIC +¼ MIC (ASU014) (USA300-HI168) | Antibiotic MIC +½ MIC (ASU014) (USA300-HI168) [µg/mL] | FIC +½ MIC (ASU014) (USA300-HI168) | Antibiotic MIC +⅛ MIC (ASU014) (USA300-HI168; [5]) [µg/mL] | Structure (SMILES) | further results |
| --- | --- | --- | --- | --- | --- | --- | --- | --- | --- | --- | --- | --- | --- | --- |
| 32 | 2 | 0.31 | 2 | 0.56 | 8 | 0.38 |  |  |  |  |  |  | CCOc1ccc2ccccc2c1C(=O)N[C@@H]1C(=O)N2[C@@H]1SC(C)(C)[C@@H]2C(=O)O [Nafcillin, nafcillin] |  |
|  | 8 | 0.31 | 4 | 0.53 | 64 | 0.63 | 2 | 0.125 | 0.31 | 0.063 | 0.53 | 0.5 | Cc1onc(-c2ccccc2)c1C(=O)N[C@@H]1C(=O)N2[C@@H]1SC(C)(C)[C@@H]2C(=O)O [Oxa, oxacillin] | MIC (MRSA (USA300-LAC)): 64 µg/mL (≈ 159 µM); MIC [1]: 8 µg/mL (≈ 19.9 µM); MIC [2]: 8 µg/mL (≈ 19.9 µM); FIC +⅛ MIC (ASU014) (USA300-HI168; [5]): 0.38; MIC (MSSA): <0.25 µg/mL; MIC [3]: 32 µg/mL (≈ 79.7 µM); Antibiotic MIC, Antibiotic Only (USA300-LAC): 64 µg/mL; Antibiotic MIC +¼ MIC (ASU014) (USA300-LAC; with ¼ MIC ASU014): 4 µg/mL; FIC +¼ MIC (ASU014) (USA300-LAC; with ¼ MIC ASU014): 0.31; Antibiotic MIC +½ MIC (ASU014) (USA300-LAC; with ½ MIC ASU014): 4 µg/mL; FIC +½ MIC (ASU014) (USA300-LAC; with ½ MIC ASU014): 0.56; Antibiotic MIC +⅛ MIC (ASU014) (USA300-LAC; with ⅛ MIC ASU014): 8 µg/mL; FIC +⅛ MIC (ASU014) (USA300-LAC; with ⅛ MIC ASU014): 0.25; Antibiotic MIC, Antibiotic Only (MSSA UAB637; MSSA UAB637): 0.125 µg/mL; Antibiotic MIC +¼ MIC (ASU014) (MSSA UAB637; MSSA UAB637, with ¼ MIC ASU014): 0.125 µg/mL; Antibiotic MIC +½ MIC (ASU014) (MSSA UAB637; MSSA UAB637, with ½ MIC ASU014): 0.125 µg/mL; Antibiotic MIC +⅛ MIC (ASU014) (MSSA UAB637; MSSA UAB637, with ⅛ MIC ASU014): 0.125 µg/mL |
